Experimental data taken from patent US20250144053A1, “A MIXTURE OF UREA, BIURET AND NITRATE AS A DIETARY NON-PROTEIN NITROGEN-SOURCE FOR RUMINANTS AND USES THEREOF” (Yara International ASA, priority 2022, published 2025).

Tests used:
[1] = tested on: crossbred yearling steers; test: Animal growth performance with NPN supplementation (Example 2); assay type: in vivo
Excerpt: A total of 72 crossbred yearling steers [303 kg±29 kg initial body weight (BW) were stratified by body weight (BW) and randomly allocated to three treatments. All steers consumed a basal diet of corn silage, cotton-gin trash, and a premix of vitamins and minerals.
The steers were housed in pens (8 steers/pen, 3 pens/treatment). The steers were supplemented with three different NPN-sources on an isonitrogenous basis, considering as reference the N provided by urea when included at 1 wt. % of the diet in dry matter (DM-basis.
In Table 5, the composition of the basal diet supplemented with three different types of NPN, i.e. urea (Urea) (46% N, Yara International), a mixture of urea and biuret (UB) (41% N) and a mixture of urea, biuret and nitrate according to the present disclosure (“UBN”) (35% N, 21.3% NO3) is shown.
From day −17 to day −16 relative to the beginning of the experimental period, the steers received 20% of their total supplemental NPN.
From day −15 to day −12 relative to the beginning of the experimental period, the steers received 40% of their total supplemental NPN.
From day −11 to day −8 relative to the beginning of the experimental period, the steers received 60% of their total supplemental NPN.
From day −7 to day −3 relative to the beginning of the experimental period, the steers received 80% of their total supplemental NPN.
From day −2 to the beginning of the experimental period (day 0), the steers received 100% of their total supplemental NPN.
The gain to feed ratio (G: F) was computed as the ratio of the average daily gain (ADG) to daily dry matter intake (DMI). The feed intake was recorded daily. The individual intake was determined via the GrowSafe® intake monitoring system. In cattle management, GrowSafe Systems is a commonly used tool to closely monitor individual animal feeding data using radio frequency identification (RFID) tag technology. The animals are equipped with a unique RFID tag that is read by the feed bunks each time the animal lowers its head into the bunk to consume feed. Average daily weight gain (ADG) and feed efficiency were calculated during the performance evaluation. The ADG was determined by the difference between the final BW and the initial BW divided by the number of days of the performance evaluation (56 days). The initial BW was calculated as the average unshrunk BW of heifers on days 16 and 17. The final BW was the average unshrunk BW measured on days 72 and 73. The unshrunk BW was obtained every 14 days.
In Table 6, the effect of NPN supplementation with Urea, UB and UBN on growth performance is shown. More in particular, the initial and the final BW and the ADG, all expressed in kg, the dry matter intake (DMI) expressed in kg/day and in percentage of BW, the gain to feed ratio (G:F) expressed in kg/kg, the net energy of gain (NEg) expressed in Mcal/kg of DM and the plasma urea nitrogen (PUN) expressed in […] are shown.

[2] = tested on: ruminal fluid (rumen microbes); test: In vitro methane production in batch culture (Example 1); assay type: cell-based, Angus crossbred steers; settings: corn silage-based diet
Protocol: The in vitro incubations were conducted on three separate days (replicates). A representative sample of digesta was collected from different places in the rumen of ruminally cannulated steers and strained through 4 layers of cheesecloth, placed in pre-warmed thermos containers, and transported to the laboratory within 30 minutes after the collection. In the laboratory, the ruminal fluid from the two steers was maintained under constant CO2-flux and was combined in equal proportions. This combined ruminal fluid was mixed with McDougall's buffer (McDougall, 1948) with and without 0.077 g/liter of 10 wt. % ammonium sulfate enriched with ^15N in relation 1:4, and it was used as an inoculum. […] At the end of the 24 hours incubation, the final pH was recorded, the bottles were placed on ice to prevent further microbial fermentation and two 10-ml samples were collected and acidified by adding 20 μl of a 20 vol/vol % of H2SO4-solution and were frozen at minus 20° C. until further analysis. […]
The amount of methane produced was determined by measuring total gas production and the contribution of methane to it. The production of gas was recorded using an Ankom Gas Monitoring System from Ankom Technologies. […] A gas subsample was analyzed to measure methane concentration and calculate the total methane production during the fermentation. […]

Question: Which ADG ([1]; days 0-14) does the source give for NC(N)=O [Urea, urea] here?
Answer: 0.78 kg

Question: What about the “G:F” value ([1]; days 0-14) of the same molecule?
Answer: 0.10 kg/kg

Question: What about the ADG ([1]; days 0-28) of the same molecule?
Answer: 0.81 kg

Question: And the “G:F” value ([1]; days 0-28)?
Answer: 0.11 kg/kg

Question: What about the “G:F” value ([1]; days 0-42) of the same molecule?
Answer: 0.14 kg/kg

Question: And the “G:F” value ([1]; days 0-56)?
Answer: 0.14 kg/kg

Question: What about the NEg ([1]; net energy of gain) of the same molecule?
Answer: 0.55 Mcal/kg of DM

Question: And the “Methane production, mM/g OMd” value ([2]; per g organic matter digested)?
Answer: 6.86 mM/g OMd

Question: What about the “Methane production, mM/g OMi” value ([2]; per g organic matter incubated) of the same molecule?
Answer: 1.23 mM/g OMi
